Laboratory results from ChEMBL document CHEMBL3508693 (2016).

Columns and labels:
[1] = Tmax of aliskiren hemifumarate following 2 week oral dosing of aliskiren hemifumarate at 100 mg.Kg-1 level studied on day 1 in male Callithrix jacchus; type: ADME, organism-based; conditions: marmoset, plasma
[2] = Tmax of aliskiren hemifumarate following 4 week oral dietary dosing of aliskiren hemifumarate at 1000 mg.Kg-1 level in female mouse; type: ADME, organism-based; conditions: CB6F1-TGrasH2, mouse, in vivo
[3] = AUC (0-24h) of aliskiren hemifumarate following 4 week oral dietary dosing of aliskiren hemifumarate at 1000 mg.Kg-1 level in female mouse; type: ADME, organism-based; conditions: CB6F1-TGrasH2, mouse, plasma
[4] = AUC (0-24h)/dose of aliskiren hemifumarate following 4 week oral dietary dosing of aliskiren hemifumarate at 1500 mg.Kg-1 level in male mouse; type: ADME, organism-based, CB6F1-TGrasH2, Plasma; conditions: in vivo
[5] = AUC of aliskiren hemifumarate following 8 day once-daily dosing of SPP100B oral solution at 40 mg level studied on day 8 in men; type: ADME, organism-based; conditions: male, human, plasma
[6] = Cmax of aliskiren hemifumarate following repeated oral administration of [14C] aliskiren hemifumarate at 100 mg.Kg-1 level studied after 2h of dosing on day 1 in rat; type: ADME, organism-based, Albino HAN:WIST; conditions: in vivo, read-out: Cmax(1)
[7] = Tmax of aliskiren hemifumarate following 4 week oral dietary dosing of aliskiren hemifumarate at 500 mg.Kg-1 level in male mouse; type: ADME, organism-based; conditions: CB6F1-TGrasH2, mouse, in vivo
[8] = Cmaxspec of aliskiren hemifumarate following 2 week oral dosing of aliskiren hemifumarate at 50 mg.Kg-1 level studied on day 14 in male Callithrix jacchus; type: ADME, organism-based, Plasma; conditions: marmoset, in vivo, 336 h
[9] = Cmaxspec of aliskiren hemifumarate following 2 week oral dosing of aliskiren hemifumarate at 10 mg.Kg-1 level studied on […] in male Callithrix jacchus; type: ADME, organism-based, Plasma; conditions: marmoset, in vivo, 336 h
[10] = AUC/dose (0-96h) of unlabeled aliskiren hemifumarate following oral administration of aliskiren hemifumarate at 100 mg.Kg-1 level in rat; type: ADME, organism-based, Albino HAN:WIST, Plasma; conditions: in vivo
[11] = Cmax of aliskiren hemifumarate following 2 week oral dosing of aliskiren hemifumarate at 50 mg.Kg-1 level studied on day 1 in male Callithrix jacchus; type: ADME, organism-based; conditions: marmoset, plasma
[12] = AUC (0-96h) of unlabeled aliskiren hemifumarate following oral administration of aliskiren hemifumarate at 100 mg.Kg-1 level in rat; type: ADME, organism-based; conditions: Albino HAN:WIST, plasma
[13] = Cmin of aliskiren hemifumarate following repeated oral administration of [14C] aliskiren hemifumarate at 100 mg.Kg-1 level studied at steady state during a dosing interval in rat; type: ADME, organism-based, Albino HAN:WIST; conditions: in vivo
[14] = Tmax of unlabeled aliskiren hemifumarate following single oral dose of aliskiren hemifumarate at 500 mg.Kg-1 level in mouse; type: ADME, organism-based; conditions: TgRasH2, mouse, plasma
[15] = Cmax of aliskiren hemifumarate following 4 week oral dietary dosing of aliskiren hemifumarate at 500 mg.Kg-1 level in female mouse; type: ADME, organism-based; conditions: CB6F1-TGrasH2, mouse, in vivo
[16] = AUC infinity of aliskiren hemifumarate following 2 week oral dosing of aliskiren hemifumarate at 100 mg.Kg-1 level studied on day 1 in male Callithrix jacchus; type: ADME, organism-based; conditions: marmoset, plasma, read-out: AUC infinity
[17] = Cmax of aliskiren hemifumarate following 2 week oral dosing of aliskiren hemifumarate at 100 mg.Kg-1 level studied on day 1 in male Callithrix jacchus; type: ADME, organism-based; conditions: marmoset, plasma
[18] = AUC (0-96 or 0-168h) of unlabeled aliskiren hemifumarate following single intravenous administration of aliskiren hemifumarate at 1 mg.Kg-1 level in marmoset; type: ADME, organism-based, Callithrix jacchus; conditions: plasma
[19] = Effect of 2 week oral dosing of aliskiren hemifumarate at 50 mg.Kg-1 level on blood urea nitrogen level in female Callithrix jacchus; type: toxicity, organism-based, Plasma; conditions: marmoset, 336 h
[20] = % SPP100 in faeces following single oral dose of 300 mg [14C]SPP100 studied in healthy men; type: ADME, organism-based, Feces; conditions: human, in vivo, at 300 mg
[21] = % of radioactivity recovered as aliskiren in urine following intravenous administration of [14C] aliskiren hemifumarate at 10 mg.Kg-1 level in rat; type: ADME, organism-based, Albino HAN:WIST; conditions: in vivo
[22] = Bioavailability of aliskiren in receiver rat following duodenal infusion of radioactivity through bile from donor rat treated with single intravenous administration of 10 mg.Kg-1 [14C] aliskiren hemifumarate; type: ADME, organism-based, HAN:WIST(SPF); conditions: in vivo
[23] = % of radioactivity recovered as aliskiren in faeces following intravenous administration of [14C] aliskiren hemifumarate at 10 mg.Kg-1 level in rat; type: ADME, organism-based, Albino HAN:WIST, Feces; conditions: in vivo
CYP2D6 = CYP2D6 (Homo sapiens, UniProt P10635); assay: Inhibition of CYP2D6 in human liver microsomes from 10 healthy donors at 200 uM aliskiren (SPP100); type: ADME, Microsome; set-up: conc 200 uM; conditions: probe bufuralol (1'-hydroxylation)
CYP2D6, sequence (P10635 whole entry): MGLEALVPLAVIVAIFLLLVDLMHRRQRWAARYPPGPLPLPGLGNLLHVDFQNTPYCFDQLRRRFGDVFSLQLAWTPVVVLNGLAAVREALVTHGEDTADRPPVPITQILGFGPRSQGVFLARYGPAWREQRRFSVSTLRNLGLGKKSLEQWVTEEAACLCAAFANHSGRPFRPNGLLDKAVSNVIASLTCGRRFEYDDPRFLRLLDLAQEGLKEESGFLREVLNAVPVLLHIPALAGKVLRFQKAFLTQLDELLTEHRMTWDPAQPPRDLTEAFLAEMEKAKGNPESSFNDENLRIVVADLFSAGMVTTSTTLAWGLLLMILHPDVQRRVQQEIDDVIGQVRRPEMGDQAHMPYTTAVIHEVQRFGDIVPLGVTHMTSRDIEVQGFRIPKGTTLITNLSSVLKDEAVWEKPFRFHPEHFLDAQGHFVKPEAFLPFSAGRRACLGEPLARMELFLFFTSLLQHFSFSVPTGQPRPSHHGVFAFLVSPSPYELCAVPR

[24] = Excretion of radioactivity (72-96h) in urine following single intravenous dose of 10 mg.Kg-1 [14C] aliskiren hemifumarate in rat; type: ADME, organism-based, Albino HAN:WIST; conditions: in vivo
[25] = Excretion (0-168h) of radioactivity in urine following intravenous administration of [14C] aliskiren hemifumarate at 1 mg.Kg-1 level in marmoset; type: ADME, organism-based, Callithrix jacchus; conditions: in vivo
[26] = Excretion of radioactivity (0-72h) in faeces following single oral dose of 500 mg.Kg-1 [14C] aliskiren hemifumarate in mouse; type: ADME, organism-based, TgRasH2, Feces; conditions: in vivo
[27] = Excretion of radioactivity (72-96h) in faeces following single oral dose of 100 mg.Kg-1 [14C] aliskiren hemifumarate in rat; type: ADME, organism-based, Albino HAN:WIST, Feces; conditions: in vivo
[28] = Excretion (0-168h) of radioactivity in faeces following intravenous administration of [14C] aliskiren hemifumarate at 1 mg.Kg-1 level in marmoset; type: ADME, organism-based, Callithrix jacchus, Feces; conditions: in vivo
[29] = Absorption (0-168h) of total radioactivity following single oral administration of [14C] aliskiren hemifumarate at 3 mg.Kg-1 level in marmoset; type: ADME, organism-based, Callithrix jacchus, Plasma; conditions: in vivo
[30] = Concentration of radioactivity in the colon wall following repeated oral administration of [14C] aliskiren hemifumarate at 100 mg.Kg-1 level studied at 24h after 10th dose in rat; type: ADME, organism-based, Albino HAN:WIST; conditions: in vivo
[31] = Tmax (0-96h) of total radioactivity following oral administration of [14C] aliskiren hemifumarate at 100 mg.Kg-1 level in rat; type: ADME, organism-based, Albino HAN:WIST, Plasma; conditions: in vivo
[32] = % of radioactivity (48h) recovered in gastrointestinal tract of receiver rat following duodenal infusion of radioactivity through bile from donor rat treated with single intravenous administration of 10 mg.Kg-1 [14C] aliskiren hemifumarate; type: ADME, organism-based, HAN:WIST(SPF); conditions: in vivo
[33] = Excretion of radioactivity (24-48h) in faeces following single intravenous dose of 10 mg.Kg-1 [14C] aliskiren hemifumarate in mouse; type: ADME, organism-based, TgRasH2, Feces; conditions: in vivo
Cytochrome P450 2D6 = Cytochrome P450 2D6 (Homo sapiens, UniProt P10635); assay: Involvement of CYP2D6 in the metabolism of [14C] aliskiren hemifumarate based on studies with microsomes from baculovirus-infected insect cells expressing recombinant human CYP450s and studies with pooled human liver microsomes from 22 donors; type: ADME, Microsome
Cytochrome P450 2D6, sequence (P10635 whole entry): as above

[34] = AUC of [14C] aliskiren hemifumarate following single oral dose of [14C] aliskiren hemifumarate at 500 mg.Kg-1 level in mouse; type: ADME, organism-based, TgRasH2, Plasma; conditions: in vivo
[35] = Excretion of radioactivity (48-72h) in faeces following single intravenous dose of 10 mg.Kg-1 [14C] aliskiren hemifumarate in rat; type: ADME, organism-based, Albino HAN:WIST, Feces; conditions: in vivo
[36] = AUC/dose (0-168h) of total radioactivity following single oral administration of [14C] aliskiren hemifumarate at 3 mg.Kg-1 level in marmoset; type: ADME, organism-based, Callithrix jacchus, Plasma; conditions: in vivo
[37] = Concentration of radioactivity in the liver following repeated oral administration of [14C] aliskiren hemifumarate at 100 mg.Kg-1 level studied at 2h after 3rd dose in rat; type: ADME, organism-based, Albino HAN:WIST; conditions: in vivo

SMILES: COCCCOc1cc(C[C@@H](C[C@H](N)[C@@H](O)C[C@H](C(=O)NCC(C)(C)C(N)=O)C(C)C)C(C)C)ccc1OC.COCCCOc1cc(C[C@@H](C[C@H](N)[C@@H](O)C[C@H](C(=O)NCC(C)(C)C(N)=O)C(C)C)C(C)C)ccc1OC.O=C(O)/C=C/C(=O)O [ALISKIREN FUMARATE]
- Tmax [1]: 1 h
- Tmax [2]: 3 h
- AUC(0-t) at 24 h [3]: 2280 ng·h/mL
- AUC normalised [4]: 2.76 ((ng/mL).hours)/(mg/kg/day)
- AUC at 192 h [5]: 46.7 ng·h/mL
- Cmax [6]: 639 nM
- Tmax [7]: 3 h
- Cmax normalised [8]: 0.246 (ug/ml)/(mg/kg)
- Cmax normalised [9]: 0.577 (ug/ml)/(mg/kg)
- AUC normalised [10]: 0.03 (umol.h/L)/(mg/kg)
- Cmax [11]: 6290 ng/mL
- AUC(0-t) at 96 h [12]: 3.01 µM·h
- Cmin(ss) [13]: 4.54 nM
- Tmax [14]: 1 h
- Cmax [15]: 63.8 ng/mL
- AUC(0-inf) [16]: 103000 ng·h/mL
- Cmax [17]: 7200 ng/mL
- AUC at 168 h [18]: 49 µM·h
- BUN_CHANGE_BY [19]: 274%

SMILES: COCCCOc1cc(C[C@@H](C[C@H](N)[C@@H](O)C[C@H](C(=O)NCC(C)(C)C(N)=O)C(C)C)C(C)C)ccc1OC
- Compound recovery [20]: 77.5%
- Compound recovery [21]: > 2%
- F [22]: < 3%
- Compound recovery [23]: > 40%
- inhibition at 200 µM (CYP2D6): 32.9%

SMILES: COCCCOc1cc(C[C@@H](C[C@H](N)[C@@H](O)C[C@H](C(=O)NCC([14CH3])([14CH3])C(N)=O)C(C)C)C(C)C)ccc1OC.O=C(O)/C=C/C(=O)O
- Radiolabel recovery [24]: 2.5%
- Radiolabel recovery [25]: 4.04%
- Radiolabel recovery [26]: 1.98%
- Radiolabel recovery [27]: 0.17%
- Radiolabel recovery [28]: 72%
- Absorption [29]: 25%
- Radiolabel recovery [30]: OUTCOME = Observed, VALUE = Highest radioactivity concentration was observed
- Tmax [31]: 0.25 h
- Tmax ([31]; iv, 10 mg/kg): 0.083 h
- Radiolabel recovery [32]: 59.8%
- Radiolabel recovery [33]: 5.69%
- Activity (Cytochrome P450 2D6): OUTCOME = Observed, VALUE = CYP2D6 contributed to a minor extent on metabolism of aliskiren
- AUC [34]: 18.3 µM·h
- Radiolabel recovery [35]: 4.69%
- AUC normalised [36]: 1.61 (umol.h/L)/(mg/kg)
- Radiolabel recovery [37]: OUTCOME = Detected
